Results published in ChEMBL document CHEMBL5614386, “Design, synthesis, and biological evaluation of novel 1-amido-2-one-4-thio-deoxypyranose as potential antitumor agents for multiple myeloma” (Bioorg Med Chem, 2024).
The source made the active and inactive calls. No cut-off for these calls is given here.

How the values were obtained:
[1] = test system: ARP-1; assay: Anti-proliferative activity against human ARP-1 cells assessed as inhibition cell growth at 5 uM incubated for 72 hrs by CCK-8 assay; type: functional, cell-based
[2] = Anti-proliferative activity against human ARP-1cells assessed as cell growth inhibition incubated for 72 hrs by CCK-8 assay; settings: ARP-1, 72 h
[3] = test system: NCI-H929; assay: Anti-proliferative activity against human NCI-H929 cells assessed as cell growth inhibition incubated for 72 hrs by CCK-8 assay; settings: NCI-H929, 72 h
[4] = test system: NCI-H929; assay: Anti-proliferative activity against human NCI-H929 cells assessed as inhibition cell growth at 5 uM incubated for 72 hrs by CCK-8 assay; type: functional, cell-based
[5] = Anti-proliferative activity against human ARP-1 cells assessed as inhibition cell growth at 5 uM incubated for 72 hrs by CCK-8 assay relative to control; type: functional; parameters: scale not given: the % may be the effect or the level left
[6] = test system: NCI-H929; assay: Anti-proliferative activity against human NCI-H929 cells assessed as inhibition cell growth at 5 uM incubated for 72 hrs by CCK-8 assay relative to control; type: functional; parameters: scale not given: the % may be the effect or the level left
[7] = test system: NCI-H929; assay: Antitumor activity against human NCI-H929 cells xenografted in BALB/C nude mouse model assessed as reduction in tumor growth at 50 mg/kg, sc administrated every other day for 13 days; type: functional, organism-based; settings: time 13.0 day
[8] = Toxicity in BALB/c mouse xenografted with human NCI-H929 cells assessed as effect on body weight at 50 mg/kg, sc administrated every other day for 13 days; type: organism-based; settings: in vivo, 312 h, time 13 day
[9] = test system: NCI-H929; assay: Anti-proliferative activity against human NCI-H929 cells assessed as inhibition cell growth incubated for 72 hrs by CCK-8 assay; type: functional, cell-based
[10] = test system: ARP-1; assay: Anti-proliferative activity against human ARP-1 cells assessed as inhibition cell growth incubated for 72 hrs by CCK-8 assay; type: functional, cell-based

Structure (SMILES)	Activity [1]	Activity [4]	Activity [5]	Activity [6]	also measured
CC(=O)OC[C@H]1O[C@@H](NC(=O)c2ccc3c(c2)OCO3)C(=O)CC1SCc1ccco1 (stereo partly drawn)	Active	Active			IC50 [2]: 2710 nM; IC50 [3]: 3030 nM
CC(=O)OC[C@H]1O[C@@H](NC(=O)c2ccc3c(c2)OCO3)C(=O)CC1SCCNC(=O)OC(C)(C)C (stereo partly drawn)	Active	Active			
COc1ccc(SC2CC(=O)[C@H](NC(=O)c3ccc4c(c3)OCO4)O[C@@H]2COC(C)=O)cc1 (stereo partly drawn)	Active	Active			IC50 [2]: 1380 nM; IC50 [3]: 1460 nM
COc1ccccc1SC1CC(=O)[C@H](NC(=O)c2ccc3c(c2)OCO3)O[C@@H]1COC(C)=O (stereo partly drawn)	inactive	inactive			
COc1ccc(SC2CC(O)[C@H](NC(=O)c3ccc4c(c3)OCO4)O[C@@H]2COC(C)=O)cc1 (stereo partly drawn)			<20%	<20%	
O=C1C2C3C=CC(C4CC34)C2C(=O)N1c1ccc(Cc2ccncc2)cc1 (stereo not drawn)		Active			Activity [7]: Active; IC50 [2]: 5450 nM; IC50 [3]: 6880 nM; Activity [8]: Non-Toxic
CC(=O)OC[C@H]1O[C@@H](NC(=O)c2ccccc2)C(O)CC1Sc1ccc(Cl)cc1 (stereo partly drawn)			<20%	<20%	
CC(=O)OC[C@H]1O[C@@H](NC(=O)c2ccccc2)C(=O)CC1Sc1ccc(Br)cc1 (stereo partly drawn)	Active	Active			
CC(=O)OC[C@H]1O[C@@H](NC(=O)c2ccc3c(c2)OCO3)C(O)CC1SCc1ccco1 (stereo partly drawn)			<20%	<20%	
CC(=O)OC[C@H]1O[C@@H](NC(=O)c2ccccc2)C(=O)CC1Sc1ccc(F)cc1 (stereo partly drawn)	Active	Active			
CC(=O)OC[C@H]1O[C@@H](NC(=O)c2ccc3c(c2)OCO3)C(=O)CC1SCc1ccc(C(C)(C)C)cc1 (stereo partly drawn)	Active	Active			
CC(=O)OC[C@H]1O[C@@H](NC(=O)c2ccc3c(c2)OCO3)C(=O)CC1SCc1ccc(Cl)cc1 (stereo partly drawn)	Active	Active			
CC(=O)OC[C@H]1O[C@@H](NC(=O)c2ccccc2)C(O)CC1SCc1ccc(F)cc1 (stereo partly drawn)			<20%	<20%	
COc1ccc(CSC2CC(=O)[C@H](NC(=O)c3ccccc3)O[C@@H]2COC(C)=O)cc1 (stereo partly drawn)	Active	Active			
COc1ccc(SC2CC(=O)[C@H](NC(=O)c3ccccc3)O[C@@H]2COC(C)=O)cc1 (stereo partly drawn)	Active	Active			
CC(=O)OC[C@H]1O[C@@H](NC(=O)c2ccccc2)C(=O)CC1Sc1ccc(Cl)cc1 (stereo partly drawn)	Active	Active			IC50 [2]: 1040 nM; IC50 [3]: 2680 nM
COc1ccc(SC2CC(O)[C@H](NC(=O)c3ccccc3)O[C@@H]2COC(C)=O)cc1 (stereo partly drawn)			<20%	<20%	
CNc1ccc(SC2CC(=O)[C@H](NC(=O)c3ccc4c(c3)OCO4)O[C@@H]2COC(C)=O)cc1 (stereo partly drawn)	Active	Active			
COc1ccc(SC2CC(O)[C@H](NC(=O)c3ccc4c(c3)OCO4)O[C@@H]2CO)cc1OC (stereo partly drawn)					Activity [9]: Active; Activity [10]: Active
Cc1ccc(SC2CC(O)[C@H](NC(=O)c3ccc4c(c3)OCO4)O[C@@H]2CO)cc1 (stereo partly drawn)					Activity [9]: Active; Activity [10]: Active
CC(=O)OC[C@H]1O[C@@H](NC(=O)c2ccccc2)C(=O)CC1SCCCCCCO (stereo partly drawn)	Active	Active			
CC(=O)OC[C@H]1O[C@@H](NC(=O)c2ccccc2)C(O)CC1Sc1ccc(C)cc1 (stereo partly drawn)			<20%	<20%	
COc1ccc(SC2CC(O)[C@H](NC(=O)c3ccc4c(c3)OCO4)O[C@@H]2CO)cc1 (stereo partly drawn)					Activity [9]: Active; Activity [10]: Active
COc1ccc(SC2CC(O)[C@H](NC(=O)c3ccc(OC)cc3)O[C@@H]2COC(C)=O)cc1 (stereo partly drawn)			<20%	<20%	
COC1CC(=O)[C@H](NC(=O)c2ccc3c(c2)OCO3)O[C@@H]1COC(C)=O (stereo partly drawn)	inactive	inactive			
COc1ccc(SC2CC(=O)[C@H](NC(=O)c3ccco3)O[C@@H]2COC(C)=O)cc1 (stereo partly drawn)	Active	Active			
CC(=O)OC[C@H]1O[C@@H](NC(=O)c2ccccc2)C(=O)CC1SCc1ccc(C(C)(C)C)cc1 (stereo partly drawn)	Active	Active			

Structure (SMILES)	Activity [1]	Activity [4]	Activity [5]	Activity [6]	also measured
COc1ccc(SC2CC(=O)[C@H](NC(=O)c3ccccc3)O[C@@H]2COC(C)=O)cc1OC (stereo partly drawn)	Active	Active			
CC(=O)OC[C@H]1O[C@@H](NC(=O)c2ccc3c(c2)OCO3)C(=O)CC1Sc1ccc(C)cc1 (stereo partly drawn)	Active	Active			IC50 [2]: 1560 nM; IC50 [3]: 850 nM
CNc1ccc(SC2CC(O)[C@H](NC(=O)c3ccc4c(c3)OCO4)O[C@@H]2COC(C)=O)cc1 (stereo partly drawn)			<20%	<20%	
CC(=O)OC[C@H]1O[C@@H](NC(=O)c2ccccc2)C(=O)CC1SCCc1cnccn1 (stereo partly drawn)	Active	Active			
CC(=O)OC[C@H]1O[C@@H](NC(=O)c2ccc3c(c2)OCO3)C(O)CC1Sc1cc(C)cc(C)c1 (stereo partly drawn)			<20%	<20%	
CC(=O)OC[C@H]1O[C@@H](NC(=O)c2ccc3c(c2)OCO3)C(O)CC1SCc1ccc(Cl)cc1 (stereo partly drawn)			<20%	<20%	
CC(=O)OC[C@H]1O[C@@H](NC(=O)c2ccc3c(c2)OCO3)C(=O)CC1Sc1cc(C)cc(C)c1 (stereo partly drawn)	Active	Active			IC50 [2]: 2290 nM; IC50 [3]: 1970 nM
COc1ccccc1SC1CC(=O)[C@H](NC(=O)c2ccccc2)O[C@@H]1COC(C)=O (stereo partly drawn)	Active	Active			
CC(=O)OC[C@H]1O[C@@H](NC(=O)c2ccc3c(c2)OCO3)C(O)CC1SCc1ccc(F)cc1 (stereo partly drawn)			<20%	<20%	
COc1ccc(SC2CC(O)[C@H](NC(=O)c3ccc4c(c3)OCO4)O[C@@H]2COC(C)=O)cc1OC (stereo partly drawn)			<20%	<20%	
CC(=O)OC[C@H]1O[C@@H](NC(=O)c2ccc3c(c2)OCO3)C(=O)CC1SCc1ccc(F)cc1 (stereo partly drawn)	Active	Active			
CC(=O)OC[C@H]1O[C@@H](NC(=O)c2ccccc2)C(=O)CC1SCc1ccc(F)cc1 (stereo partly drawn)	Active	Active			
CC(=O)OC[C@H]1O[C@@H](NC(=O)c2ccccc2)C(=O)CC1SCc1ccc(Cl)cc1 (stereo partly drawn)	Active	Active			
CC(=O)OC[C@H]1O[C@@H](NC(=O)c2ccc3c(c2)OCO3)C(=O)CC1SC1CCCC1 (stereo partly drawn)	inactive	inactive			
COc1ccc(CSC2CC(O)[C@H](NC(=O)c3ccccc3)O[C@@H]2COC(C)=O)cc1 (stereo partly drawn)			<20%	<20%	
CC(=O)OC[C@H]1O[C@@H](NC(=O)c2ccccc2)C(=O)CC1Sc1ccc(C)cc1 (stereo partly drawn)	Active	Active			
CC(=O)OC[C@H]1O[C@@H](NC(=O)c2ccccc2)C(=O)CC1SCc1ccco1 (stereo partly drawn)	Active	Active			
CC(=O)OC[C@H]1O[C@@H](NC(=O)c2ccccc2)C(O)CC1Sc1ccc(F)cc1 (stereo partly drawn)			<20%	<20%	
COc1ccc(CSC2CC(=O)[C@H](NC(=O)c3ccc4c(c3)OCO4)O[C@@H]2COC(C)=O)cc1 (stereo partly drawn)	Active	Active			
CC(=O)OC[C@H]1O[C@@H](NC(=O)c2ccc3c(c2)OCO3)C(O)CC1Sc1ccc(C)cc1 (stereo partly drawn)			<20%	<20%	
COc1ccc(SC2CC(=O)[C@H](NC(=O)c3ccc(OC)cc3)O[C@@H]2COC(C)=O)cc1 (stereo partly drawn)	Active	Active			IC50 [2]: 1410 nM; IC50 [3]: 1200 nM
CC(=O)OC[C@H]1O[C@@H](NC(=O)c2ccc3c(c2)OCO3)C(=O)CC1SCCc1cnccn1 (stereo partly drawn)	Active	Active			
COc1ccc(C(=O)N[C@@H]2O[C@H](COC(C)=O)C(Sc3ccc(C)cc3)CC2=O)cc1 (stereo partly drawn)	Active	Active			IC50 [2]: 4570 nM; IC50 [3]: 1600 nM
CC(=O)OC[C@H]1O[C@@H](NC(=O)c2ccccc2)C(=O)CC1SCCNC(=O)OC(C)(C)C (stereo partly drawn)	Active	Active			
CC(=O)OC[C@H]1O[C@@H](NC(=O)c2ccccc2)C(O)CC1Sc1ccc(Br)cc1 (stereo partly drawn)			<20%	<20%	
CC(=O)OC[C@H]1O[C@@H](NC(=O)c2ccc3c(c2)OCO3)C(=O)CC1SCCCCCCO (stereo partly drawn)	Active	Active			
